Values quoted from earlier work in US20220023282A1 (priority 2018, published 2022).

Test system: Mycobacterium tuberculosis isolates
Settings: variety of Mycobacterium tuberculosis isolates, regardless of resistance to other anti-TB drugs; cited from earlier work

COc1nc2ccc(Br)cc2cc1[C@@H](c1ccccc1)[C@@](O)(CCN(C)C)c1cccc2ccccc12 [bedaquiline, (1R,2S)-1-(6-bromo-2-methoxyquinolin-3-yl)-4-(dimethylamino)-2-(naphthalen-1-yl)-1-phenylbutan-2-ol]
Minimum Inhibitory Concentration (MIC) 99: 0.01 to 0.1 µg/mL
